In patent publication US8470849B2, “7-azaindole derivatives as selective 11-β-hydroxysteroid dehydrogenase type 1 inhibitors” (Merck Patent GmbH, priority 2007, dated 2013):

Columns and labels:
Format in all cases: biochemical
rat 11-beta HSD-1 = target: T1, rat 11-beta HSD-1 (Rattus norvegicus, UniProt P16232); assay: 11beta-HSD1 enzyme assay, rat liver microsome fractions (HTRF cortisol); conditions: for IC50: read-out: Inhibition of rat 11-beta HSD-1 IC50
T1 construct: Mice and Rat liver microsome fractions were purchased from TEBU; tissue TEBU; host or cells: rat liver microsome fractions
Experimental: (§1) Human recombinant 11 beta-hydroxysteroid dehydrogenase type 1 (11 beta-HSD1) and type 2 (11beta-HSD2) enzymes were expressed in E. Coli. Mice and Rat liver microsome fractions were purchased from TEBU.
(§2) Reactions were initiated by addition of 10 μl 11beta-HSD1 (3 μg) from E. Coli, either as microsome fractions from rat and mice liver (2,5 μg). Following mixing, the plates were shaken for 150 minutes at 37° C. The reactions were terminated with 10 μl Acid-18beta glycyrrhetinic stop solution. Determinations of cortisol levels in 11 beta-HSD1 preparations were monitored by HTRF (HTRF cortisol assay from C is bio international).

human 11-beta HSD-1 = target: T2, human 11-beta HSD-1 (Homo sapiens, UniProt P28845); assay: 11beta-HSD1 enzyme assay, human recombinant enzyme (HTRF cortisol); conditions: for IC50: human recombinant enzyme from E. Coli, cortisone/NADPH, 150 minutes at 37° C., read-out: Inhibition of human 11-beta HSD-1 IC50; for Selectivity Ratio human HSD2/HSD1: ratio of IC50 human HSD2 to human HSD1
T2 construct: made in house; host or cells: E. coli
Experimental: as §1, §2

mouse 11-beta HSD-1 = target: T3, mouse 11-beta HSD-1 (Mus musculus, UniProt P50172); assay: 11beta-HSD1 enzyme assay, mice liver microsome fractions (HTRF cortisol); conditions: for IC50: read-out: Inhibition of mouse 11-beta HSD-1 IC50
T3 construct: Mice and Rat liver microsome fractions were purchased from TEBU; tissue TEBU; host or cells: mouse liver microsome fractions
Experimental: as §1, §2

human 11-beta HSD-2 = target: T4, human 11-beta HSD-2 (Homo sapiens, UniProt P80365); assay: 11beta-HSD2 enzyme assay, human recombinant enzyme; conditions: cortisol/NAD, read-out: Inhibition of human 11-beta HSD-2 IC50
T4 construct: made in house; host or cells: E. coli
T4 sequence (P80365 1-405): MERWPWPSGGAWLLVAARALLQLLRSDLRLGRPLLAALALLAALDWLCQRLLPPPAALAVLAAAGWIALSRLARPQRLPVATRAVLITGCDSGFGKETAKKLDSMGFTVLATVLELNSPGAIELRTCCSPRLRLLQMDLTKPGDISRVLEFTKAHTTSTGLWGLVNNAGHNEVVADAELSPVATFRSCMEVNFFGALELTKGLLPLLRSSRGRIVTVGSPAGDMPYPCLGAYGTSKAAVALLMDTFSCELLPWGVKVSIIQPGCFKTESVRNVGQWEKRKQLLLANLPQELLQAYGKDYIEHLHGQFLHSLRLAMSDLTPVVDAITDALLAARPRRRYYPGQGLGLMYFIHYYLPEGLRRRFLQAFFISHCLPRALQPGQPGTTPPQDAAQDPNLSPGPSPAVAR
From the text: as §1

T1 sequence (P16232 whole entry): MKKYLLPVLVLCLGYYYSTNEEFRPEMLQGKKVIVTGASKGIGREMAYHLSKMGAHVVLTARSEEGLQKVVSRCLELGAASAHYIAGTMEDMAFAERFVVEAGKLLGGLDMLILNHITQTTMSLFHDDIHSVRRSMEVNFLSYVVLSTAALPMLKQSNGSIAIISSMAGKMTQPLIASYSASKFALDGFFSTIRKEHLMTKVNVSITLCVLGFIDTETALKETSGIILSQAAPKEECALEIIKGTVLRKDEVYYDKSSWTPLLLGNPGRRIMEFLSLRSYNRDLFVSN
T2 sequence (P28845 whole entry): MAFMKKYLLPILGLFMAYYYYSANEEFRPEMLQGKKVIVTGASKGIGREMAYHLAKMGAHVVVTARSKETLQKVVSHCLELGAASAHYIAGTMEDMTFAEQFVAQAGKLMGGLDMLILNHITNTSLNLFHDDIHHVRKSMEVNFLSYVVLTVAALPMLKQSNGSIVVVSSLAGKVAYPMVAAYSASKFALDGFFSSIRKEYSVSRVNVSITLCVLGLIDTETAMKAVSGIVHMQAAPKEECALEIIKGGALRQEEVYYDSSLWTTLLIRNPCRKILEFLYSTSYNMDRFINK
T3 sequence (P50172 whole entry): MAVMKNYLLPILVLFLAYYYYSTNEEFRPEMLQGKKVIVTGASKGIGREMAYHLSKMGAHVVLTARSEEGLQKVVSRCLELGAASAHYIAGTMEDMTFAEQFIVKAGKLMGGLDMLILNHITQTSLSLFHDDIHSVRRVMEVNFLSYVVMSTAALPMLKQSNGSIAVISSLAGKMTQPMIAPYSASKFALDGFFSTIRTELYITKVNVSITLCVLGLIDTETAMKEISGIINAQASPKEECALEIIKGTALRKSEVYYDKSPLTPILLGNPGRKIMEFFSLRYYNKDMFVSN

Compound	IC50 (rat 11-beta HSD-1) [nM]	IC50 (human 11-beta HSD-1) [nM]	IC50 (mouse 11-beta HSD-1) [nM]	also measured
O=C(N1CCC(c2c[nH]c3ncccc23)C1)C1(c2ccccc2)CC1 (stereo not shown) [Ex. 8, (1-Phenyl-cyclopropyl)-[3-(1H-pyrrolo[2,3-b]pyridine-3-yl)-pyrrolidine-1-yl]-methanone]	48	50		Selectivity Ratio human HSD2/HSD1 (human 11-beta HSD-1): >200
CN(C)c1ccc(C(=O)N2CCC(c3c[nH]c4ncccc34)C2)cc1 (stereo not shown) [Ex. 7, (4-Dimethylaminophenyl)-[3-(1H-pyrrolo[2,3-b]pyridine-3-yl)-pyrrolidine-1-yl]-methanone]	43		170	IC50 (human 11-beta HSD-2): > 10 µM
CC(C)(C(=O)N1CCC(c2c[nH]c3ncccc23)C1)c1ccc(Cl)cc1 (stereo not shown) [Ex. 9, 2-(4-Chlorophenyl)-2-methyl-1-[3-(1H-pyrrolo[2,3-b]pyridine-3-yl)-pyrrolidine-1-yl]-propan-1-one]	920	9.8		Selectivity Ratio human HSD2/HSD1 (human 11-beta HSD-1): > 1000
O=C(C1CCCCC1)N1CCC(c2c[nH]c3ncccc23)C1 (stereo not shown) [Ex. 3, (Cycloxexyl)-[3-(1H-pyrrolo[2,3-b]pyridine-3-yl)-pyrrolidine-1-yl]-methanone]	510	540	950	

Further lines, with some results ahead:

IC50 (rat 11-beta HSD-1) [nM]	IC50 (human 11-beta HSD-1) [nM]	IC50 (mouse 11-beta HSD-1) [nM]	Compound	also measured
	110		CC(C)(COc1ccc(F)cc1)CC(=O)N1CCC(c2c[nH]c3ncccc23)CC1 [Ex. 14, 4-(4-Fluoro-phenoxy)-3,3-dimethyl-1-[4-(1H-pyrrolo[2,3-b]pyridine-3-yl)-piperidine-1-yl]-butan-1-one]	Inhibition of mouse 11-beta HSD-1, activity in % of Ctrl (mouse 11-beta HSD-1; at 1 μM): 86% of Ctrl; Inhibition of rat 11-beta HSD-1, activity in % of Ctrl (rat 11-beta HSD-1; at 1 μM): 85% of Ctrl
	16	2100	CC(C)(COc1ccc(F)cc1)CC(=O)N1CCC(c2c[nH]c3ncccc23)C1 (stereo not shown) [Ex. 17, 4-(4-Fluoro-phenoxy)-3,3-dimethyl-1-[3-(1H-pyrrolo[2,3-b]pyridine-3-yl)-pyrrolidine-1-yl]-butan-1-one]	
	1140		CC(C)(C(=O)N1CCC(c2c[nH]c3ncccc23)CC1)N1CCN(c2ccc(C(F)(F)F)cn2)CC1 [Ex. 13, 2-Methyl-1-[4-(1H-pyrrolo[2,3-b]pyridin-3-yl)-piperidine-1-yl]-2-[4-(5-trifluoromethyl-pyridine-2-yl)-piperazine-1-yl]-propan-1-one]	
	29		O=C(CS(=O)(=O)c1ccc(Cl)cc1)N1CCC(c2c[nH]c3ncccc23)C1 (stereo not shown) [Ex. 20, 2-(4-Chloro-benzenesulfonyl)-1-[3-(1H-pyrrolo[2,3-b]pyridine-3-yl)-pyrrolidine-1-yl]-ethanone]	
